For one experiment, the target named is CLK2 kinase (Homo sapiens, UniProt P49760). Put plainly: CLK2 kinase activity assay (Z-lyte FRET).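 Also: FRET read-out as coumarin to fluorescein emission ratio, unphosphorylated peptide as 0% and phosphorylated peptide as 100% controls, duplicate reactions, non-linear regression fit of dose-response curves.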 The experiment is classed as biochemical. As to conditions: Z-lyte Ser/Thr 6 peptide, 60 μM ATP, 1 h at room temperature.
The subject of experiment [1] is Wnt pathway activity (SW480 colon carcinoma cells stably expressing the Sp5-Luc reporter). The experiment in a line: Wnt pathway activity screening assay (Sp5-Luc reporter gene assay). Conditions: Homo sapiens, SW480, Table 4; SW480 cells stably expressing Sp5-Luc reporter, 10-point dose-response from 10 μM, 36 to 48 hours.
Experiment [2] relates to primary human mesenchymal stem cells (hMSCs). The experiment in a line: Chondrogenesis screening using primary human mesenchymal stem cells. The experiment is classed as cell-based. Conditions: Homo sapiens, Mesenchymal stem cells, hMSC chondrogenesis; for EC50: concentration required to induce 50% levels of chondrogenesis with TGF-β3 as positive control, read-out: Conc (nM) of 50% TGF-β3 activity; for Emax: maximum activity relative to TGF-β3 (10 ng/mL) positive control, read-out: Max. Activity as % TGF-β3 activity. An excerpt:
Representative compounds were screened using primary human mesenchymal stem cells (hMSCs) to determine their ability to induce chondrogenesis (process by which cartilage is developed).
Human Mesenchymal Stem Cell Culture: Primary human mesenchymal stem cells (hMSCs) were purchased from Lonza (Walkersville, Md.) and expanded in Mesenchymal Stem Cell Growth Media (Lonza). Cells between passage 3 and 6 were used for the experiments.
Area of nodules in each well was normalized to the average of 3 DMSO treated wells on the same plate using Excel (Microsoft Inc.). The normalized averages (fold change over DMSO) of 2 or 3 replicate wells for each compound concentration were calculated. Due to solubility limitations of some of the compounds, curve fitting was incomplete leading to inaccurate EC50 determinations.
Using TGF-β3 as a positive control, the concentration of representative compounds required to induce 50% levels of chondrogenesis is reported. In addition, the maximum activity of each compound and the respective dose that each compound reached maximum chondrogenesis activity is reported.

Another experiment has as its target CLK3 kinase (Homo sapiens, UniProt P49761). The experiment in a line: CLK3 kinase activity assay (Z-lyte FRET).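 Also: kinase activity read as coumarin/fluorescein emission ratio by FRET, unphosphorylated peptide as 0% and phosphorylated peptide as 100% control, values from non-linear regression of dose-response curves.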 The experiment is classed as biochemical. Conditions: Z-lyte Ser/Thr 18 peptide, 156 μM ATP, 1 h at room temperature.

This is an account of results in patent US20230000842A1, “METHODS OF TREATING CARTILAGE DISORDERS THROUGH INHIBITION OF CLK AND DYRK” (SAMUMED, LLC, priority 2019, published 2023).

Some results are limits rather than exact numbers.

CLK3 kinase, sequence (P49761 whole entry): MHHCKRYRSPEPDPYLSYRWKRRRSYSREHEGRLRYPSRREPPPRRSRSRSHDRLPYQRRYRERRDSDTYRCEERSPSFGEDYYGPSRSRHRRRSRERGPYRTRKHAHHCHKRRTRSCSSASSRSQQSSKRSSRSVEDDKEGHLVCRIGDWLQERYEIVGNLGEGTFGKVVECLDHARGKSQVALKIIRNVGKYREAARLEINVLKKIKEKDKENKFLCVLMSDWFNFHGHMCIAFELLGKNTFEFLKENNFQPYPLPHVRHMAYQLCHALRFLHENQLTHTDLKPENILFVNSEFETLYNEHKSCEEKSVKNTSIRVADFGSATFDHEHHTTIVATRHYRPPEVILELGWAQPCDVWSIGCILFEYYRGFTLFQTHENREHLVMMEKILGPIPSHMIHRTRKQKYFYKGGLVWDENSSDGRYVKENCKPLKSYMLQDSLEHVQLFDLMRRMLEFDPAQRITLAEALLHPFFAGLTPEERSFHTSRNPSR
CLK2 kinase, sequence (P49760 whole entry): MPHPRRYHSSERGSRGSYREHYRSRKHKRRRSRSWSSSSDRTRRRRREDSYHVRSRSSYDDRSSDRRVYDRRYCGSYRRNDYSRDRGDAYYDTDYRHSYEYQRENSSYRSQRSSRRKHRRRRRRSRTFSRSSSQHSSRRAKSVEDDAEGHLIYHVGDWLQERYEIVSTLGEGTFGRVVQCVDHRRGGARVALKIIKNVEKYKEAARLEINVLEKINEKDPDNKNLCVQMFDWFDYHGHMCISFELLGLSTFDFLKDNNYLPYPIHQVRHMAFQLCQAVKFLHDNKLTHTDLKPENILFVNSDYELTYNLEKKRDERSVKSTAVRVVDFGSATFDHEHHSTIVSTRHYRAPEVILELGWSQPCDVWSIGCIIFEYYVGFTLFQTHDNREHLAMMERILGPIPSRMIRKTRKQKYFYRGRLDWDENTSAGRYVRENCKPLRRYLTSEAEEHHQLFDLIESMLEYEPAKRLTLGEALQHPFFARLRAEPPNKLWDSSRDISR

In the case of `CC(C)Nc1cncc(-c2cnc3[nH]nc(-c4cc5c(-c6ccccc6F)ccnc5[nH]4)c3c2)c1` [compound 333], the EC50 on CLK2 kinase is 20 nM; in experiment [1], > 10000 nM; in experiment [2], 10 nM. The Emax in experiment [2] was 81.6%.
For the compound `CN(C)C(=O)Nc1cncc(-c2ccc3[nH]nc(C(=O)Nc4cccnc4)c3c2)c1` [compound 54], the EC50 stood at 1 nM at CLK2 kinase, 20 nM at CLK3 kinase and 176 nM in experiment [1].
For the compound `O=C(Nc1cnccc1NC(=O)C1CC1)c1n[nH]c2ccc(-c3cccnc3)cc12` [compound 63], the EC50 at CLK2 kinase turned out to be 1 nM; on CLK3 kinase, 343 nM; in experiment [1] it was 68 nM.
Regarding `CN1CCN(c2ccnc3[nH]c(-c4n[nH]c5ccc(-c6cn[nH]c6)nc45)cc23)CC1` [compound 498], the figures for the EC50 (at CLK2 kinase; in experiment [1]; in experiment [2]) were 3 nM, > 10000 nM and 300 nM, respectively. The Emax in experiment [2] is 60.1%.
`O=C(Nc1ccnnc1)c1n[nH]c2ccc(-c3cncc(CN4CCCCC4)c3)cc12` [compound 94]: the values for the EC50 (on CLK2 kinase; on CLK3 kinase; in experiment [1]) were 1 nM, 11 nM and 40 nM, respectively.
With `O=C(Nc1cncc(-c2cnc3[nH]nc(-c4cc5cccnc5[nH]4)c3c2)c1)c1ccccc1` [compound 436], the figures for the EC50 (at CLK2 kinase; in experiment [1]) were 8 nM and > 10000 nM, respectively. Further, the Emax in experiment [2] is 21.8%.
As to `CN1CCN(c2ccc(NC(=O)c3n[nH]c4ccc(-c5cncc(NC(=O)C6CC6)c5)cc34)cn2)CC1` [compound 55], the EC50 at CLK2 kinase came out at 1 nM; on CLK3 kinase, 13 nM; in experiment [1] it was 80 nM.
As to `COc1cncc(C#Cc2c[nH]nc2C(=O)Nc2ccc(N3CCNCC3)nc2)c1` [compound 29], the EC50 is 25 nM at CLK2 kinase and > 10000 nM in experiment [1]. In addition, the Emax in experiment [2] was 74.7%.
In the case of `Cc1n[nH]c2ccc(-c3cncc(OC4CCNC[C@@H]4F)n3)cc12` (stereo partly drawn) [compound 44], the EC50 in experiment [1] was determined as 627 nM. Moreover, in experiment [2], the EC50 is 100 nM and the Emax amounted to 44.9%.
Take `CN1CCC(n2cc(C(=O)Nc3cc4cc(-c5cnn(C)c5)ccc4cn3)cn2)CC1` [compound 561]: the EC50 on CLK2 kinase was determined as 1 nM; at CLK3 kinase, 6 nM; in experiment [1], 14 nM.
On to `O=C(CC1CCNCC1)Nc1cncc(-c2cnc3[nH]nc(-c4cc5c(-c6ccncc6)ccnc5[nH]4)c3c2)c1` [compound 393], for which the EC50 at CLK2 kinase was 6 nM; in experiment [1] it was > 10000 nM. Further, the Emax in experiment [2] came out at 26.7%.
Turning to `COc1cncc(-c2ccc3[nH]nc(-c4nc5c(-c6cccc(F)c6)cncc5[nH]4)c3n2)c1` [compound 149], the EC50 was found to be 2 nM on CLK2 kinase, 65 nM on CLK3 kinase and 20.6 nM in experiment [2]. Also, the Emax in experiment [2] was determined as 55.5%.
Consider `CN(C)c1cncc(-c2cnc3[nH]nc(-c4cc5c(-c6ccncc6)cncc5[nH]4)c3c2)c1` [compound 397], for which the EC50 was 3 nM at CLK2 kinase and > 10000 nM in experiment [1]. The Emax in experiment [2] was determined as 191%.
As for `CN1CC2CCC(C1)N2C(=O)Nc1cc2cc(-c3cnn(C)c3)ccc2cn1` [compound 638], the values for the EC50 (at CLK2 kinase; in experiment [1]) were 1130 nM and > 10000 nM, respectively.
Consider `Cc1n[nH]c2ccc(-c3cncc(OC4CCNCC4(F)F)n3)cc12` (stereo not drawn) [compound 47], for which the EC50 came out at 227 nM in experiment [1] and 300 nM in experiment [2]. For the same compound, in experiment [2], the Emax turned out to be 82.1%.
Regarding `c1cc(-c2ccnc3[nH]c(-c4n[nH]c5ccc(-c6cncnc6)cc45)cc23)ccn1` [compound 405], the figures for the EC50 (on CLK2 kinase; in experiment [1]) were 3 nM and > 10000 nM, respectively. For the same compound, the Emax in experiment [2] was found to be 17.3%.
Consider `c1cc(-c2cncc3[nH]c(-c4n[nH]c5ccc(-c6cncc(CNCC7CCCC7)c6)cc45)nc23)cs1` [compound 250], for which the results for the EC50 (at CLK2 kinase; in experiment [1]; in experiment [2]) were 4 nM, 58 nM and 100 nM, respectively. Moreover, in experiment [2], the Emax is 167%.
In experiment [1], `Cc1n[nH]c2ccc(-c3cncc(NC4CCNC[C@@H]4F)n3)cc12` (stereo partly drawn) [compound 42] gave an EC50 of 84.3 nM. In addition, the Emax in experiment [2] was 25.6%.
On to `Nc1cncc(-c2cc3c(-c4cc5c(-c6ccccc6F)ccnc5[nH]4)n[nH]c3cn2)c1` [compound 325], for which the EC50 at CLK2 kinase was 4 nM; in experiment [1], > 10000 nM. The Emax in experiment [2] was found to be 32.4%.
`Cc1ccncc1-c1ccc2[nH]nc(-c3cc4c(-c5ccncc5)ccnc4[nH]3)c2n1` [compound 376]: the values for the EC50 (at CLK2 kinase; in experiment [1]; in experiment [2]) were 11 nM, > 10000 nM and 300 nM, respectively. The Emax in experiment [2] worked out at 56.5%.
For the compound `CN(C)Cc1cncc(-c2cnc3[nH]nc(-c4nc5c(-c6ccsc6)cccc5[nH]4)c3c2)c1` [compound 251], the figures for the EC50 (at CLK3 kinase; in experiment [1]; in experiment [2]) were 67 nM, 32 nM and 300 nM, respectively. The Emax in experiment [2] was 105%.
As to `Cc1n[nH]c2ccc(-c3cncc(OC4CCNC[C@H]4F)n3)cc12` (stereo partly drawn) [compound 45], the EC50 in experiment [1] came to 834 nM; in experiment [2] it was 30 nM. In addition, the Emax in experiment [2] stood at 54.2%.
Regarding `Nc1cncc(-c2cc3c(-c4cc5c(-c6ccncc6)cncc5[nH]4)n[nH]c3cn2)c1` [compound 381], the figures for the EC50 (at CLK2 kinase; in experiment [1]; in experiment [2]) were 3 nM, > 10000 nM and 10 nM, respectively. Moreover, the Emax in experiment [2] is 52%.
As to `COc1cncc(-c2ccc3[nH]nc(-c4nc5c(-c6cccc(F)c6)ccnc5[nH]4)c3n2)c1` [compound 150], the figures for the EC50 at CLK2 kinase and on CLK3 kinase were 3 nM and 89 nM, respectively. In experiment [2], the Emax came to 47%.
Regarding `Fc1cccc(-c2cncc3[nH]c(-c4n[nH]c5ccc(-c6cn[nH]c6)nc45)nc23)c1` [compound 154], the EC50 on CLK2 kinase was 3 nM; in experiment [1] it was > 10000 nM; in experiment [2], 20.6 nM. The Emax in experiment [2] worked out at 51.8%.
For the compound `CNC(=O)c1ccc(C(=O)Nc2cc3cc(-c4cn(C)nn4)ccc3cn2)cn1` [compound 577], the EC50 at CLK2 kinase turned out to be 3 nM; on CLK3 kinase it was 56 nM.
Consider `O=C(Nc1cc2cc(-c3cnco3)cnc2cn1)[C@H]1CC[C@H](CO)CC1` [compound 640], for which the EC50 at CLK2 kinase is 7430 nM; in experiment [1], > 10000 nM.
As to `CCCC(=O)Nc1cncc(-c2cnc3[nH]nc(-c4cc5c(-c6ccncc6)ccnc5[nH]4)c3c2)c1` [compound 384], the figures for the EC50 (at CLK3 kinase; in experiment [1]; in experiment [2]) were 100 nM, 999 nM and 30 nM, respectively. In addition, in experiment [2], the Emax came out at 50.3%.
Turning to `CN1CCN(c2cc(C(=O)Nc3cc4cc(-c5cnn(C)c5)ccc4cn3)ccn2)CC1` [compound 545], the Emax in experiment [2] came out at 27.1%.
For `c1cc(-c2ccnc3[nH]c(-c4n[nH]c5ccc(-c6cncc(CNCC7CCCC7)c6)nc45)cc23)ccn1` [compound 396], the results for the EC50 (at CLK2 kinase; in experiment [1]; in experiment [2]) were 12 nM, > 10000 nM and 100 nM, respectively. Further, the Emax in experiment [2] is 67.2%.
On to `Nc1cncc(-c2cnc3[nH]nc(-c4cc5c(-c6ccncc6)ccnc5[nH]4)c3c2)c1` [compound 380], for which the EC50 at CLK2 kinase was 5 nM; in experiment [1] it was > 10000 nM. Besides, in experiment [2], the Emax worked out at 11.9%.
For `c1cc(-c2ccnc3[nH]c(-c4n[nH]c5ccc(-c6cncc(OCCN7CCCC7)c6)nc45)cc23)ccn1` [compound 404], the values for the EC50 (at CLK2 kinase; in experiment [1]) were 5 nM and > 10000 nM, respectively. Besides, the Emax in experiment [2] was found to be 39.6%.
For `O=C(Nc1ccc(OCCN2CCCC2)nc1)c1n[nH]cc1C#Cc1cccnc1` [compound 28], the EC50 on CLK2 kinase is 46 nM; in experiment [1] it was 409 nM. Further, the Emax in experiment [2] worked out at 68.8%.
With `CN(C)CCOc1cncc(-c2cc3c(-c4cc5c(-c6ccc(F)cc6)nccc5[nH]4)n[nH]c3cn2)c1` [compound 318], the EC50 on CLK2 kinase is 19 nM; in experiment [1] it was 3000 nM; in experiment [2], 900 nM. Further, in experiment [2], the Emax was 113%.
As for `Cn1cc(-c2cnc3[nH]nc(-c4cc5cccnc5[nH]4)c3c2)cn1` [compound 454], the EC50 on CLK2 kinase is 3 nM; in experiment [1], > 10000 nM; in experiment [2] it was 300 nM. Further, the Emax in experiment [2] is 51.7%.
In the case of `O=C(Cc1ccccc1)Nc1cncc(-c2ccc3[nH]nc(-c4nc5c(-c6ccncc6)ccnc5[nH]4)c3n2)c1` [compound 626], the results for the EC50 (on CLK2 kinase; in experiment [1]) were 7 nM and > 10000 nM, respectively.
With `Cn1cncc1-c1ccc2cnc(NC(=O)c3ccnc(N4CC(N)C4)c3)cc2c1` [compound 581], the results for the EC50 on CLK2 kinase and at CLK3 kinase were 2 nM and 11 nM, respectively.
In the case of `CN1CCN(c2cccc3[nH]c(-c4n[nH]c5ncc(-c6cncc(CN7CCCCC7)c6)cc45)cc23)CC1` [compound 494], the results for the EC50 (at CLK2 kinase; at CLK3 kinase; in experiment [2]) were 12 nM, 973 nM and 300 nM, respectively.
Take `COc1cccc(-c2cncc3[nH]c(-c4n[nH]c5ccc(-c6cn[nH]c6)nc45)nc23)c1` [compound 633]: the results for the EC50 (on CLK2 kinase; in experiment [1]) were 3 nM and > 10000 nM, respectively.
